These results are taken from US11897862B2 (Gilead Sciences, Inc., priority 2022, dated 2024).

One assay concerns the target IKZF2 (Homo sapiens, UniProt Q96SW2+Q9UKS7). The assay is described as follows: HEK293 HiBiT in vitro degradation of IKZF2. The assay is classed as cell-based. Set-up: expressed in transfected cells. Particulars: for DC50 / IKZF2 Dmax: HEK293 HiBiT; for DC50: 18-24 hr incubation, normalized to DMSO control, read-out: IKZF2 EC50; for IKZF2 Dmax / Dmax: maximum degradation at the highest concentration tested; for Dmax: HEK293, HEK293 HiBiT. The method, then: (§1) In vitro degradation of IKZF1, IKZF2, and SALL4 was measured using HiBiT protein tagging and detection technology (Promega).
(§2) HiBit technology was used to develop the quantitative assays to measure the cellular IKZFs level by tagging an 11 amino acid HiBit peptides […] to the protein of interest. Reporter plasmids were generated by fusing a linker sequence ([…]) followed by the HiBit tag at the C-terminus of IKZF1, IKZF2, and SALL4. The fusion fragments were subsequently cloned into pcDNA5 pcDNA™5/FRT/TO plasmids (Thermo Fisher, cat #V652020) downstream of the tetracycline operator. The resulting plasmids were co-transfected with pOG44 Flp-Recombinase Expression Vector (Thermo Fisher, cat #V600520) into Flp-In™ T-REx HEK293 line (Thermo Fisher, cat #R78077) and a stable cell pool was selected by adding 100 µg/ml of Hygromycin (Thermo Fisher, cat #10687010). The reporter cell enabled Tet-On inducible reporter expression from a single copy of the integrated gene.
(§3) On Day 1, Cells were grown to ˜80% confluency in tissue culture medium (DMEM Glutamax (Gibco10569), 10% Tet free FBS (Takara 631106), and PenStrep Glutamin (Gibco 10378)) in tissue culture flasks. Doxycycline was then added to a final concentration of […] to induce reporter expression at 37° C. overnight.
(§4) On Day 2, 125 nL of serially-diluted solution of testing compounds were dispensed into 384-well white solid assay plates via ECHO acoustic liquid handler. Cells were lifted by 0.25% Trypsin (Gibco 25200) then pelleted by centrifugation (Beckman Avanti J-E) at 500×g for 5 min. Cell pellets were resuspended in TC medium at the concentration of 3e5/mL and 25 μL of cell suspension were added into each well of compound-spotted plates. The plates were returned to a 37° C. incubator overnight (18-24 hr).
(§5) On Day 3, assay plates were removed from the tissue culture incubator and 25 μL of Nano-Glo lytic detection system (Promega, cat #N3030) was added to each well. Plates were incubated at r.t. for 3 min with shaking, and luminescence was read using an Envision reader (Perkin Elmer).
(§6) To assess the IKZF1, IKZF2, and SALL4 degrader potential of exemplified compounds of this disclosure and certain Reference Compounds EC50 and Dmax values were determined for the compounds of Examples 1 to 383 and Reference Compounds A-1, B-1, B-2, B-3, B-4, and C-1 in the HiBiT assays. Asterisks (*) indicate examples for which the data shown represents an average of n≥3.

The target of the next assay is T1, IKZF1 (Homo sapiens, UniProt Q13422+Q96SW2).
T1 construct: expressed in transfected cells
T1 sequence (Q13422 whole entry): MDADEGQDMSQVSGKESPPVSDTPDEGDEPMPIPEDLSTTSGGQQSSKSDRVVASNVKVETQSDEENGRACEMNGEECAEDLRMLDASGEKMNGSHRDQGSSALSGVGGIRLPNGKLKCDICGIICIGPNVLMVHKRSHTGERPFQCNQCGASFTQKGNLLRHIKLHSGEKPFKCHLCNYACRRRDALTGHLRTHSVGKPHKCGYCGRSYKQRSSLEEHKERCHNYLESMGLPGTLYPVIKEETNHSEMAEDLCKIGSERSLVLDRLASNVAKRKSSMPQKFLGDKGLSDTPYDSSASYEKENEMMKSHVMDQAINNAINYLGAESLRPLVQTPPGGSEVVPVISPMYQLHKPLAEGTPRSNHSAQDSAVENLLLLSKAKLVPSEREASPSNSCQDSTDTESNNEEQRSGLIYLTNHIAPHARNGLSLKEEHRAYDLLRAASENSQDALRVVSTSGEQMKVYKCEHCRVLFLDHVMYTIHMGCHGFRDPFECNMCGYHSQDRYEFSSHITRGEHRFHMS
T1 sequence (Q96SW2 whole entry): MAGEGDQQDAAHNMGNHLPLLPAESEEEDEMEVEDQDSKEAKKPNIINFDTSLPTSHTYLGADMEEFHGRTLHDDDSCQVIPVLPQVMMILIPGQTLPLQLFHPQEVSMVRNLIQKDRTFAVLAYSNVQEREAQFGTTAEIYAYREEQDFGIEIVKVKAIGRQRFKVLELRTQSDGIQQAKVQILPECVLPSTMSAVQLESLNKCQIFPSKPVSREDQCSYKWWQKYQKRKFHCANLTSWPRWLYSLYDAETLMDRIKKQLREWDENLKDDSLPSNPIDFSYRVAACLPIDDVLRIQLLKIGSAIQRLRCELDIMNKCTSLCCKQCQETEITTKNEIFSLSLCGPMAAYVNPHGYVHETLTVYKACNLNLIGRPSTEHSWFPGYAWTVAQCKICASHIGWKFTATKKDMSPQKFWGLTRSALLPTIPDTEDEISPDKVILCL
T1 sequence (Q16531 whole entry partner): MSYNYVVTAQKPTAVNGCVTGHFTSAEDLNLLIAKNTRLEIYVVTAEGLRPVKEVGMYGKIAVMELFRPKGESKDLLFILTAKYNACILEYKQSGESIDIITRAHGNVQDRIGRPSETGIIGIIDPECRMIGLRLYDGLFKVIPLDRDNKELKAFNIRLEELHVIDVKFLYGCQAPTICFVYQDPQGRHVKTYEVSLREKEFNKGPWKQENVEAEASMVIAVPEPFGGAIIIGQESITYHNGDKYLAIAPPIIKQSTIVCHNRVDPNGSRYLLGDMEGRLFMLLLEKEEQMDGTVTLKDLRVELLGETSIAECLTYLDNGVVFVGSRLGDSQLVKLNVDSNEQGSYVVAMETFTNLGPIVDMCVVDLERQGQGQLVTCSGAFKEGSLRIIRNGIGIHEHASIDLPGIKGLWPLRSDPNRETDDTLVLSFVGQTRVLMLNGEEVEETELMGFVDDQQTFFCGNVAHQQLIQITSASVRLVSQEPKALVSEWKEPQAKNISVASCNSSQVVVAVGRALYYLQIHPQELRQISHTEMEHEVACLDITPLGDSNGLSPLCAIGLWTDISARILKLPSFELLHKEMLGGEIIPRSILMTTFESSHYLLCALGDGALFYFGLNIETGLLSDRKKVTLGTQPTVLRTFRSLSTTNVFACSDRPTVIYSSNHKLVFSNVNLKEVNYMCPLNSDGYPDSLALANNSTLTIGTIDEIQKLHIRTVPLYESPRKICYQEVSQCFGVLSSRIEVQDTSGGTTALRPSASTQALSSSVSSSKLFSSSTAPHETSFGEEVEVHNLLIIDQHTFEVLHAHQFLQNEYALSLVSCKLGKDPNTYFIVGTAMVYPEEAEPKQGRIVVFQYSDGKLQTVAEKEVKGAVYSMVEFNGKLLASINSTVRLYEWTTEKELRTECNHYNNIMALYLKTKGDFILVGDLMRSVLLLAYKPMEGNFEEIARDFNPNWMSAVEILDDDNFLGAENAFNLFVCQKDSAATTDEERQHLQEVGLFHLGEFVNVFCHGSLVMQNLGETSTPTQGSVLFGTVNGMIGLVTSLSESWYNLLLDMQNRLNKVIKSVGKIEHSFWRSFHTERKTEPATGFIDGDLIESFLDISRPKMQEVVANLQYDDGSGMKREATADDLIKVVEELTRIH
The assay is described as follows: HEK293 HiBiT in vitro degradation of IKZF1. The conditions noted are these: for DC50: 18-24 hr incubation, normalized to DMSO control, read-out: IKZF1 EC50; for Dmax: HEK293, HEK293 HiBiT. The assay is classed as cell-based. The method, then:
as §1, §2, §3, §4, §5, §6

Setting [1] is: maximum degradation at the highest concentration tested.

IKZF2, sequence (Q9UKS7 1-500 isoform Q9UKS7-2): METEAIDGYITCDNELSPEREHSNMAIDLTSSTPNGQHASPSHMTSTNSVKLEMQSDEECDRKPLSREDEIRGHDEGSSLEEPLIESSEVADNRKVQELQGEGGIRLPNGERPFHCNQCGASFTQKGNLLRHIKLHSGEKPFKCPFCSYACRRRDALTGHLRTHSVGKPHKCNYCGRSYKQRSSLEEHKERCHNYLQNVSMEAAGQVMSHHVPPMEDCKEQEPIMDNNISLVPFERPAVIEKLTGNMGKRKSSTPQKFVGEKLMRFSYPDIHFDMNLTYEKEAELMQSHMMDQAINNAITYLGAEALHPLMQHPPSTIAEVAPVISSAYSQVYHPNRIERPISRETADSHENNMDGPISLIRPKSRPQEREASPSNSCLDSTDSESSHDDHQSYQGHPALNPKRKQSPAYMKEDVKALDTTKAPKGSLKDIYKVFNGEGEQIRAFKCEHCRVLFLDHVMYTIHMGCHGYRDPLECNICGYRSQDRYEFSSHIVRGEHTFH
IKZF2, sequence (Q96SW2 whole entry): as the sequence (Q96SW2 whole entry) above
IKZF2, sequence (Q16531 whole entry partner): as the sequence (Q16531 whole entry partner) above

For the compound `O=C1CCC(N2Cc3cc(C[C@H]4CCCC[C@@H]4NC4CCCCC4(F)F)ccc3C2=O)C(=O)N1` (stereo partly drawn) [Example 183], on IKZF2, the DC50 was found to be 91 nM and the “IKZF2 Dmax” value amounted to 81%. Further, the DC50 at IKZF1 (HEK293 HiBiT) is greater than 1000 nM.
`O=C1CCC(N2Cc3cc(C[C@H]4CCCC[C@@H]4N4CC(c5ccccc5)C4)ccc3C2=O)C(=O)N1` (stereo partly drawn) [Example 55, 3-(1-oxo-5-(((1R,2S)-2-(3-phenylazetidin-1-yl)cyclohexyl)methyl)isoindolin-2-yl)piperidine-2,6-dione]: on IKZF2, the Dmax was 87% and the DC50 was determined as 25 nM. The DC50 on IKZF1 (HEK293 HiBiT) was greater than 1000 nM.
Regarding `O=C1CCC(N2Cc3cc(C[C@H]4CCCC[C@@H]4NCC45CC(c6ccccc6)(C4)C5(F)F)ccc3C2=O)C(=O)N1` (stereo partly drawn) [Example 174], at IKZF2, the greatest degradation seen (Dmax) worked out at 86% and the DC50 amounted to 67 nM. Moreover, on IKZF1 (HEK293 HiBiT), the DC50 is greater than 1000 nM.
On to `C[C@H]1CCCC(N[C@H]2CCCC[C@@H]2Cc2ccc3c(c2)CN(C2CCC(=O)NC2=O)C3=O)C1` (stereo partly drawn) [Example 236], for which the Dmax on IKZF2 came out at 98%; on IKZF1 (setting [1]) it was 34%. The DC50 came out at 6 nM on IKZF2 and 122 nM on IKZF1 (HEK293 HiBiT).
For `CC(CC(C)(C)C)N[C@H]1CCCC[C@@H]1Cc1ccc2c(c1)CN(C1CCC(=O)NC1=O)C2=O` (stereo partly drawn) [Example 205], at IKZF2, the Dmax is 98% and the DC50 is 3 nM. The DC50 on IKZF1 (HEK293 HiBiT) was greater than 1000 nM.
In the case of `O=C1CCC(N2Cc3cc(C[C@H]4CCCC[C@@H]4NCCC(F)(F)F)ccc3C2=O)C(=O)N1` (stereo partly drawn) [Example 104], the Dmax amounted to 92% at IKZF2 and 37% at IKZF1 (setting [1]). For the same compound, the DC50 was determined as 16 nM at IKZF2 and 75 nM on IKZF1 (HEK293 HiBiT).
At IKZF2, `CC(COc1ccccc1)N[C@H]1CCCC[C@@H]1Cc1ccc2c(c1)CN(C1CCC(=O)NC1=O)C2=O` (stereo partly drawn) [Example 77] gave a Dmax of 90%. For the same compound, the DC50 on IKZF2 is 11 nM; on IKZF1 (HEK293 HiBiT), greater than 1000 nM.
Regarding `CCOC1CC(N[C@H]2CCCC[C@@H]2Cc2ccc3c(c2)CN(C2CCC(=O)NC2=O)C3=O)C1` (stereo partly drawn) [Example 75], the Dmax was determined as 95% at IKZF2 and 51% on IKZF1 (setting [1]). The DC50 amounted to 7 nM on IKZF2 and 888 nM on IKZF1 (HEK293 HiBiT).
Consider `O=C1CCC(N2Cc3cc(C[C@H]4CCCC[C@@H]4NCc4ccc(F)cc4F)ccc3C2=O)C(=O)N1` (stereo partly drawn) [Example 19, 3-(5-(((1R,2S)-2-((2,4-difluorobenzyl)amino)cyclohexyl)methyl)-1-oxoisoindolin-2-yl)piperidine-2,6-dione], for which the Dmax at IKZF2 turned out to be 89%. Also, the DC50 at IKZF2 was 30 nM; at IKZF1 (HEK293 HiBiT), greater than 1000 nM.
For `O=C1CCC(N2Cc3c(ccc(C[C@H]4CCCC[C@@H]4NCC4CCC(F)(F)CC4)c3F)C2=O)C(=O)N1` (stereo partly drawn) [Example 99], the Dmax at IKZF2 came out at 94%; at IKZF1 (setting [1]) it was 37%. For the same compound, the DC50 worked out at 14 nM at IKZF2 and 68 nM on IKZF1 (HEK293 HiBiT).
For the compound `CC(N[C@H]1CCCC[C@@H]1Cc1ccc2c(c1)CN(C1CCC(=O)NC1=O)C2=O)C1CCS(=O)(=O)CC1` (single isomer, unassigned) [Example 371], at IKZF2, the DC50 stood at 62 nM and the “IKZF2 Dmax” value was found to be 94%. Further, the DC50 at IKZF1 (HEK293 HiBiT) was 461 nM. For the same compound, on IKZF1 (HEK293 HiBiT, maximum degradation at the highest concentration tested), the “IKZF1 Dmax” value worked out at 50%.
As for `O=C1CCC(N2Cc3cc(C[C@H]4CCCC[C@@H]4NCc4cccnc4)ccc3C2=O)C(=O)N1` (stereo partly drawn) [Example 41, 3-(1-oxo-5-(((1R,2S)-2-((pyridin-3-ylmethyl)amino)cyclohexyl)methyl)isoindolin-2-yl)piperidine-2,6-dione], the results for the Dmax at IKZF2 and on IKZF1 (setting [1]) were 90% and 44%, respectively. The DC50 on IKZF2 came out at 24 nM; at IKZF1 (HEK293 HiBiT) it was 216 nM.
In turn, `CC(CC1CC1)N[C@H]1CCCC[C@@H]1Cc1ccc2c(c1)CN(C1CCC(=O)NC1=O)C2=O` (stereo partly drawn) [Example 204] returned a Dmax on IKZF2 of 97%. Moreover, the figures for the DC50 on IKZF2 and at IKZF1 (HEK293 HiBiT) were 4 nM and greater than 1000 nM, respectively.
Regarding `CCC(N[C@H]1CCCC[C@@H]1Cc1ccc2c(c1)CN(C1CCC(=O)NC1=O)C2=O)C1CC1` (single isomer, unassigned) [Example 233], at IKZF2, the DC50 came to 3 nM and the “IKZF2 Dmax” value came to 97%. In addition, the DC50 on IKZF1 (HEK293 HiBiT) is greater than 1000 nM.
For `CCC(C)N[C@H]1CCCC[C@@H]1Cc1ccc2c(c1)CN(C1CCC(=O)NC1=O)C2=O` (single isomer, unassigned) [Example 300], on IKZF2, the DC50 is 4 nM and the “IKZF2 Dmax” value amounted to 97%. Besides, the DC50 on IKZF1 (HEK293 HiBiT) was greater than 1000 nM.
As to `O=C1CCC(N2Cc3cc(C[C@H]4CCCC[C@@H]4NCc4cc(F)cc(F)c4)ccc3C2=O)C(=O)N1` (stereo partly drawn) [Example 15, 3-(5-(((1R,2S)-2-((3,5-difluorobenzyl)amino)cyclohexyl)methyl)-1-oxoisoindolin-2-yl)piperidine-2,6-dione], on IKZF2, the Dmax was determined as 95% and the DC50 stood at 20 nM. On IKZF1 (HEK293 HiBiT), the DC50 was greater than 1000 nM.
With `CC(N[C@H]1CCCO[C@@H]1Cc1ccc2c(c1F)CN(C1CCC(=O)NC1=O)C2=O)C1CCC1` (single isomer, unassigned) [Example 248], at IKZF2, the DC50 was 21 nM and the “IKZF2 Dmax” value amounted to 92%. Also, on IKZF1 (HEK293 HiBiT), the DC50 was greater than 1000 nM.
On to `CCCC(CCC)N[C@H]1CCCC[C@@H]1Cc1ccc2c(c1)CN(C1CCC(=O)NC1=O)C2=O` (stereo partly drawn) [Example 166], for which, on IKZF2, the Dmax is 96% and the DC50 was 23 nM. For the same compound, the DC50 at IKZF1 (HEK293 HiBiT) is greater than 1000 nM.
At IKZF2, `O=C1CC[C@H](N2Cc3c(ccc(C[C@H]4OCCC[C@@H]4NC4CCCCC4)c3F)C2=O)C(=O)N1` (single isomer, unassigned) [Example 338] showed a Dmax of 92%. The DC50 at IKZF2 is 6 nM; at IKZF1 (HEK293 HiBiT), greater than 1000 nM.
For `CO[C@@H]1CCC[C@H](Cc2ccc3c(c2)CN(C2CCC(=O)NC2=O)C3=O)[C@H]1NC1CCC(F)(F)CC1` (stereo partly drawn) [Example 164] the same measures were 83%, 17 nM and greater than 1000 nM.
For `O=C1CC[C@@H](N2Cc3cc(C[C@H]4CCCC[C@@H]4NC4CCCCC4)ccc3C2=O)C(=O)N1` (single isomer, unassigned) [Example 337] the same measures were 95%, 5 nM and greater than 1000 nM.
Consider `O=C1CCC(N2Cc3cc(C[C@H]4CCCC[C@@H]4NC4CCOc5ccccc54)ccc3C2=O)C(=O)N1` (stereo partly drawn) [Example 175], for which the figures for the maximal degradation (Dmax) at IKZF2 and at IKZF1 (setting [1]) were 96% and 46%, respectively. For the same compound, the DC50 on IKZF2 was determined as 24 nM; at IKZF1 (HEK293 HiBiT) it was 189 nM.
For the compound `[2H]C([2H])(N[C@H]1CCCC[C@@H]1Cc1ccc2c(c1)CN(C1CCC(=O)NC1=O)C2=O)c1ccccc1` (single isomer, unassigned) [Example 97], the values for the Dmax at IKZF2 and on IKZF1 (setting [1]) were 92% and 30%, respectively.
`CC(C)N[C@H]1CC(F)(F)CC[C@@H]1Cc1ccc2c(c1)CN(C1CCC(=O)NC1=O)C2=O` (stereo partly drawn) [Example 348]: the values for the Dmax on IKZF2 and on IKZF1 (setting [1]) were 97% and 39%, respectively. The figures for the DC50 at IKZF2 and on IKZF1 (HEK293 HiBiT) were 2 nM and 62 nM, respectively.
On IKZF2, `CC(N[C@H]1CCCC[C@@H]1Cc1ccc2c(c1)CN(C1CCC(=O)NC1=O)C2=O)C1(F)CC1` (single isomer, unassigned) [Example 224] returned a Dmax of 96%. In addition, the DC50 at IKZF2 is 2 nM; on IKZF1 (HEK293 HiBiT), greater than 1000 nM.
Take `CC(N[C@H]1CCCC[C@@H]1Cc1ccc2c(c1)CN(C1CCC(=O)NC1=O)C2=O)C1(F)CC1` (single isomer, unassigned) [Example 225]: at IKZF2, the DC50 was found to be 11 nM and the “IKZF2 Dmax” value is 94%. The DC50 at IKZF1 (HEK293 HiBiT) was greater than 500 nM.
With `O=C1CCC(N2Cc3c(ccc(O[C@H]4CCCC[C@@H]4NC4CCC(F)(F)CC4)c3F)C2=O)C(=O)N1` (stereo partly drawn) [Reference Compound B-1, reference compound], at IKZF2, the Dmax was 97% and the DC50 was determined as 6 nM. The DC50 on IKZF1 (HEK293 HiBiT) was greater than 1000 nM.
`[2H]c1c([2H])c([2H])c(C([2H])([2H])N[C@H]2CCCC[C@@H]2Cc2ccc3c(c2)CN(C2CCC(=O)NC2=O)C3=O)c([2H])c1[2H]` (single isomer, unassigned) [Example 98]: the Dmax on IKZF2 is 87%.
On the same count and under the same terms, the figure for `[2H]c1c([2H])c([2H])c(CN[C@H]2CCCC[C@@H]2Cc2ccc3c(c2)CN(C2CCC(=O)NC2=O)C3=O)c([2H])c1[2H]` (single isomer, unassigned) [Example 25] is 87%.
